Reference: PubChem BioAssay AID248 (DTP/NCI, 2004)
Where “and” joins values, the source holds several entries; their conditions need not be identical. Equal entries are not always repeated. Inconclusive results and toxic doses are left out. Cut-off read from the data, not from the text of the source: active = T/C of 150% or more; inactive = T/C below 125%.

Tested on: L1210 leukemia ip in BDF1 mice, survival T/C
Assay: NCI In Vivo Anticancer Drug Screen. Data for tumor model L1210 Leukemia (intraperitoneal) in B6D2F1 (BDF1) mice
Details: endpoint: mean survival time, higher = longer survival
In short: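 Tumor was transplanted into mice, which were then dosed with test compound or vehicle alone. Survival was recorded for each group, and the treated figure was expressed relative to the control figure.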

[1] = dose: 100.0 mg/kg/injection, schedule: Q04DX002 (ip), vehicle: Klucel (hydroxypropylcellulose) (HPC)
[2] = dose: 200.0 mg/kg/injection, schedule: Q04DX002 (ip), vehicle: Klucel (hydroxypropylcellulose) (HPC)
[3] = dose: 400.0 mg/kg/injection, schedule: Q04DX002 (ip), vehicle: Klucel (hydroxypropylcellulose) (HPC)
[4] = dose: 100.0 mg/kg/injection, schedule: Q01DX009 (ip), vehicle: saline with Tween-80
[5] = dose: 100.0 mg/kg/injection, schedule: Q04DX003 (ip), vehicle: saline with Tween-80
[6] = dose: 200.0 mg/kg/injection, schedule: Q01DX009 (ip), vehicle: saline with Tween-80
[7] = dose: 200.0 mg/kg/injection, schedule: Q04DX003 (ip), vehicle: saline with Tween-80
[8] = dose: 100.0 mg/kg/injection, schedule: Q01DX009 (ip), vehicle: Klucel (hydroxypropylcellulose) (HPC)
[9] = dose: 200.0 mg/kg/injection, schedule: Q01DX009 (ip), vehicle: Klucel (hydroxypropylcellulose) (HPC)
[10] = dose: 50.0 mg/kg/injection, schedule: Q01DX001 (ip), vehicle: carboxymethylcellulose (CMC)
[11] = dose: 100.0 mg/kg/injection, schedule: Q01DX001 (ip), vehicle: carboxymethylcellulose (CMC)
[12] = dose: 200.0 mg/kg/injection, schedule: Q01DX001 (ip), vehicle: carboxymethylcellulose (CMC)
[13] = dose: 100.0 mg/kg/injection, schedule: Q01DX001 (ip), vehicle: saline
[14] = dose: 200.0 mg/kg/injection, schedule: Q01DX001 (ip), vehicle: saline
[15] = dose: 400.0 mg/kg/injection, schedule: Q01DX001 (ip), vehicle: saline
[16] = dose: 100.0 mg/kg/injection, schedule: Q04DX002 (ip), vehicle: saline

Measured: T/C

CCOC(=O)CN(c1c(C)cc(C)c(N(CC(=O)OCC)S(=O)(=O)c2ccccc2)c1C)S(=O)(=O)c1ccccc1
inactive: dose: 100.0 mg/kg/injection, schedule: Q04DX003 (ip), vehicle: saline 93 % of control | dose: 200.0 mg/kg/injection, schedule: Q04DX003 (ip), vehicle: saline 101 % of control | dose: 400.0 mg/kg/injection, schedule: Q04DX003 (ip), vehicle: saline 93 % of control

O=C(O)CCCC1OCCO1
inactive: dose: 100.0 mg/kg/injection, schedule: Q01DX001 (ip), vehicle: saline with Tween-80 98 % of control | dose: 200.0 mg/kg/injection, schedule: Q01DX001 (ip), vehicle: saline with Tween-80 95 % of control | dose: 400.0 mg/kg/injection, schedule: Q01DX001 (ip), vehicle: saline with Tween-80 101 % of control

CC1(C)CCC(C)(C)C(O)C1O (stereo not drawn)
inactive: [1] 92 % of control | [2] 105 % of control | [3] 118 % of control

N#Cc1ccc(C#N)cc1
inactive: [4] 97 % of control | [5] 92 % of control and 95 % of control | [6] 104 % of control | [7] 106 % of control and 86 % of control | dose: 400.0 mg/kg/injection, schedule: Q01DX009 (ip), vehicle: saline with Tween-80 115 % of control | dose: 400.0 mg/kg/injection, schedule: Q04DX003 (ip), vehicle: saline with Tween-80 100 % of control and 104 % of control

N#CC(C#N)=CN
inactive: dose: 100.0 mg/kg/injection, schedule: Q01DX001 (ip), vehicle: Klucel (hydroxypropylcellulose) (HPC) 105 % of control | dose: 200.0 mg/kg/injection, schedule: Q01DX001 (ip), vehicle: Klucel (hydroxypropylcellulose) (HPC) 106 % of control | dose: 400.0 mg/kg/injection, schedule: Q01DX001 (ip), vehicle: Klucel (hydroxypropylcellulose) (HPC) 101 % of control

ClCCN(CCCCCCN(CCCl)Cc1ccccc1)Cc1ccccc1
inactive: dose: 2.5 mg/kg/injection, schedule: Q04DX002 (ip), vehicle: Klucel (hydroxypropylcellulose) (HPC) 104 % of control | dose: 5.0 mg/kg/injection, schedule: Q04DX002 (ip), vehicle: Klucel (hydroxypropylcellulose) (HPC) 100 % of control

C=C(C)C1CCC2(CO)CCC3(C)C(CCC4C5(C)CCC(OC6CCCCO6)C(C)(C)C5CCC43C)C12 (stereo not drawn)
inactive: dose: 25.0 mg/kg/injection, schedule: Q04DX002 (ip), vehicle: saline with Tween-80 96 % of control | dose: 50.0 mg/kg/injection, schedule: Q04DX002 (ip), vehicle: saline with Tween-80 93 % of control

CS(=O)(=O)OCC1CCc2[nH]c3ccccc3c2C1 (stereo not drawn)
inactive: dose: 100.0 mg/kg/injection, schedule: Q04DX003 (ip), vehicle: Klucel (hydroxypropylcellulose) (HPC) 108 % of control | dose: 200.0 mg/kg/injection, schedule: Q04DX003 (ip), vehicle: Klucel (hydroxypropylcellulose) (HPC) 97 % of control | dose: 400.0 mg/kg/injection, schedule: Q04DX003 (ip), vehicle: Klucel (hydroxypropylcellulose) (HPC) 97 % of control

O=C(N/N=C/c1ccco1)c1cccnc1
inactive: [8] 97 % of control | [9] 101 % of control

C=CCC(O)C=C (stereo not drawn)
inactive: [10] 89 % of control | [11] 92 % of control

O=C1NC(=O)C(=Cc2csc3ccccc23)C(=O)N1
inactive: [11] 94 % of control | [12] 96 % of control

Nc1ccc(C(=O)NCC(=O)O)cc1
inactive: [1] 93 % of control | [2] 104 % of control | [3] 100 % of control

CC(C)COCCCN
inactive: dose: 10.0 mg/kg/injection, schedule: Q01DX009 (ip), vehicle: saline 95 % of control | dose: 50.0 mg/kg/injection, schedule: Q01DX009 (ip), vehicle: saline 95 % of control

CCC1CC2c3cc(OC)c(OC)cc3CCN2CC1(O)Cc1nccc2c1CCCC2 (stereo not drawn)
inactive: [11] 104 % of control | [12] 103 % of control | dose: 400.0 mg/kg/injection, schedule: Q01DX001 (ip), vehicle: carboxymethylcellulose (CMC) 95 % of control

CCCCCCCCn1nnnc1-c1nnn(C)n1
inactive: [8] 106 % of control | [9] 104 % of control | dose: 400.0 mg/kg/injection, schedule: Q01DX009 (ip), vehicle: Klucel (hydroxypropylcellulose) (HPC) 101 % of control

O=C1CCCC(=O)NNC(=O)Nc2ccccc2NC(=O)NN1
inactive: dose: 50.0 mg/kg/injection, schedule: Q01DX001 (ip), vehicle: saline 102 % of control | [13] 90 % of control | [14] 96 % of control | [15] 96 % of control

O=C(O)C1(C(=O)O)CC2CC=CCC2C1 (stereo not drawn)
inactive: dose: 100.0 mg/kg/injection, schedule: Q01DX001 (ip), vehicle: acetone 97 % of control | dose: 100.0 mg/kg/injection, schedule: Q04DX003 (ip), vehicle: acetone 100 % of control | dose: 200.0 mg/kg/injection, schedule: Q01DX001 (ip), vehicle: acetone 101 % of control | dose: 200.0 mg/kg/injection, schedule: Q04DX003 (ip), vehicle: acetone 104 % of control | dose: 400.0 mg/kg/injection, schedule: Q01DX001 (ip), vehicle: acetone 95 % of control | dose: 400.0 mg/kg/injection, schedule: Q04DX003 (ip), vehicle: acetone 98 % of control

ClCCCN1CCN(CCCCl)CC1
inactive: dose: 6.25 mg/kg/injection, schedule: Q01DX009 (ip), vehicle: distilled water + alcohol 93 % of control | dose: 12.5 mg/kg/injection, schedule: Q01DX009 (ip), vehicle: distilled water + alcohol 95 % of control | dose: 25.0 mg/kg/injection, schedule: Q01DX009 (ip), vehicle: distilled water + alcohol 101 % of control | dose: 50.0 mg/kg/injection, schedule: Q01DX009 (ip), vehicle: distilled water + alcohol 113 % of control | dose: 100.0 mg/kg/injection, schedule: Q01DX009 (ip), vehicle: distilled water + alcohol 114 % of control

CCOC(=O)C(C)F (stereo not drawn)
inactive: [10] 94 % of control | [11] 89 % of control | [12] 89 % of control

O=C(c1ccccc1)N1CC2CC3OC3c3cccc1c32 (stereo not drawn)
inactive: [5] 88 % of control | [7] 92 % of control

C[S+](C)(=O)CCCS(=O)(=O)[O-]
inactive: [16] 99 % of control | dose: 200.0 mg/kg/injection, schedule: Q04DX002 (ip), vehicle: saline 92 % of control | dose: 400.0 mg/kg/injection, schedule: Q04DX002 (ip), vehicle: saline 92 % of control

O=C(O)/C=C/C(=O)Nc1ccc(N=Nc2ccccc2)cc1
inactive: dose: 50.0 mg/kg/injection, schedule: Q01DX009 (ip), vehicle: saline with Tween-80 101 % of control | [4] 92 % of control | [6] 89 % of control

Nc1nc2c(ncn2C2CC(CO)C(O)C2O)c(=O)[nH]1 (stereo not drawn)
inactive: dose: 9.5 mg/kg/injection, schedule: Q01DX009 (ip), vehicle: other 101 % of control | dose: 19.0 mg/kg/injection, schedule: Q04DX003 (ip), vehicle: other 94 % of control | dose: 38.0 mg/kg/injection, schedule: Q04DX003 (ip), vehicle: other 92 % of control | dose: 75.0 mg/kg/injection, schedule: Q01DX001 (ip), vehicle: other 88 % of control

CC(=O)OC1CCC(=O)C2C(C(=O)O)CCCC12 (stereo not drawn)
inactive: [13] 97 % of control | [14] 103 % of control | [15] 91 % of control

CCCc1cnc(NCCCC(N)C(=O)O)nc1 (stereo not drawn)
inactive: dose: 25.0 mg/kg/injection, schedule: Q04DX002 (ip), vehicle: saline 95 % of control | dose: 50.0 mg/kg/injection, schedule: Q04DX002 (ip), vehicle: saline 95 % of control | [16] 89 % of control
